# Measured values as given in PMC3636874, “An Antedrug of the CXCL12 Neutraligand Blocks Experimental Allergic Asthma without Systemic Effect in Mice” (The Journal of Biological Chemistry, 2013).
# Like-named read-outs stand apart in the source and are kept apart here.
# Assays:
# [1] = Chemical stability in PBS pH 7.4; type: physicochemical
# Method: Solubility and stability studies were performed on a Gilson HPLC system with a photodiode array detector, an autosampler, and a Valco injector. Data acquisition and processing were performed with Trilution LC version 2.0 software. Measurements were carried out at 21 ± 1 °C. A 2.6-μm Kinetex column (50 × 4.6 mm) was used for stability studies in biological media, and a 5-μm Luna C18(2) column (50 × 4.6 mm) was used for solubility and chemical stability analysis. Both columns were purchased from Phenomenex. The injection volume was 20 μl, the mobile phase flow rate was 2 ml/min, and the following program was applied for the elution: 0–0.2 min, 0% B; 0.2–2.7 min, 0–100% B; 2.7–3.2 min, 100% B; 3.2–3.4 min, 100–0% B; 3.4–6.1 min, 0% B. Solvent B was HPLC grade acetonitrile (Sigma-Aldrich CHROMASOLV). The aqueous solvent contained 0.1% trifluoroacetic acid, and the detection wavelength was 365 nm.
# Stability of compounds was assessed in PBS, pH 7.4, with or without 10% HP-βCD at 20 °C up to 24 h. For each compound, the 10 mM DMSO stock solution was diluted to a final incubation concentration of 10 μM with 0.1% DMSO. 20 μl of sample were removed at t0, 1, 2, 4, 6, 8, 10, and 24 h and directly injected onto the HPLC. The percentage of remaining test compound relative to t0 was measured by monitoring the peak area on the chromatogram.
# HepG2 cells = experiment: Cytotoxicity, Alamar Blue (resazurin) reduction assay; type: cell-based, human; settings: HepG2: 10 μM, 24 h
# Method: The capacity of the cells to carry out reduction reactions after drug treatment was estimated with the fluorescent Alamar Blue reagent (AbD Serotec, Oxford, UK). Proliferating cells cause the change from the oxidized blue and non-fluorescent Alamar Blue form (resazurin) to a reduced, pink, highly fluorescent form (resorufin) that can be detected using fluorescence monitoring (excitation 560 nm; emission 590 nm). HepG2 or HEK 293 cells were seeded at a density of 30,000 cells/well on a 96-well plate and allowed to settle overnight before treatment. The dye was added to the cells together with the test substances (5-fold concentrated stock solution prepared in culture medium or in PBS with 10% HP-βCD), and the fluorescence was measured after 24-h incubation, using a Flex Station (Molecular Devices).
# Cytochrome c oxidase = Cytochrome c oxidase activity in lung and heart homogenates of treated mice; type: in vivo, mouse; settings: intraperitoneal 350 μmol/kg per day, three days
# Method: Lung and heart were homogenized separately with an UltraTurax® (IMLAB, Lille, France) in PBS, pH 7.4 (one organ in 1 ml of buffer). Lung homogenate was diluted at 1:2 and heart homogenate at 1:5 in PBS. 100 μl of each diluted homogenate were placed in a microplate, and 100 μl of assay reagent (10 mM tetramethyl-p-phenylenediamine, 2 mM sodium ascorbate, 20 mM KH2PO4) were added. The microplate was placed immediately in a microplate spectrophotometer reader, and optical density kinetic (λ = 610 nm) was measured every 20 s for 30 min. Results are expressed as Vmax/100 μg of protein (OD/min/100 μg of protein).
structure (smiles),measurement,setting,value
"COc1cc(/C=C(\C#N)C(=O)c2ccc(Cl)cc2)ccc1O [CN-chalcone 4, (E)-2-(4-chlorobenzoyl)-3-(4-hydroxy-3-methoxyphenyl)acrylonitrile]",half-life at 10 μM,"[1]; PBS pH 7.4, 20 °C, read-out: Stability half-life (t1/2), PBS (converted)",360 min
same,half-life at 10 μM,"[1]; PBS with 10% HP-βCD, PBS pH 7.4 with 10% HP-βCD, 20 °C, read-out: Stability half-life (t1/2), PBS, 10% β-cyclodextrine (converted)",978 min
same,toxic effect in vivo or in HepG2 cells in vitro,HepG2 cells,neither the reactants nor carbonitrile-chalcone 4 display any toxic effect
same,"Cytochrome c oxidase (Vmax), Heart (×10^3)",Cytochrome c oxidase; OVA-challenged mice,29.9 ± 3.5 OD/min/100 μg of protein (×10^
same,"Cytochrome c oxidase (Vmax), Lung (×10^2)",Cytochrome c oxidase; OVA-challenged mice,12.7 ± 1.6 OD/min/100 μg of protein (×10^
same,"Cytochrome c oxidase (Vmax), Heart (×10^3)",Cytochrome c oxidase; mice without OVA,28.5 ± 3.2 OD/min/100 μg of protein (×10^
same,"Cytochrome c oxidase (Vmax), Lung (×10^2)",Cytochrome c oxidase; mice without OVA,13.8 ± 2.8 OD/min/100 μg of protein (×10^
